Test results as given in patent publication US8143217B2, “Use of DPP-IV inhibitor to reduce hypoglycemic events” (Novartis AG, priority 2005, dated 2012).

System: patients with type 2 diabetes treated with insulin
Assay: Clinical study: 24 weeks LAF237 50 mg bid vs placebo as add-on to insulin, hypoglycemic episodes
Assay type: in vivo, human
Conditions: for Number of severe hypoglycemic episodes (Panel C): severe = requiring assistance of another party; for Number of severe hypoglycemic events compared with placebo group: P=0.032, chi-square test of two Poisson rates
Method: A multicenter, double-blind, randomized, parallel-group study to compare the effect of 24 weeks treatment with LAF237 50 mg bid to placebo as add-on therapy in patients with type 2 diabetes treated with insulin.
In addition to treatment with insulin, patients are assigned to double-blind treatment of LAF237 50 mg bid or placebo in a ratio of 1:1.
This is a multicenter, randomized, double-blind, placebo-controlled study. Patients with type 2 diabetes (HbA1c 7.5-11%) who have been treated for at least 3 months with insulin is eligible for participation in the trial. Eligible patients are randomized equally to LAF237 50 mg bid or placebo in addition to continuing their insulin therapy. The insulin dose can be adjusted downward as clinically indicated but upward adjustments should not exceed 25% of the baseline insulin dose.
Each patient attends one screening visit (Week-4) where the inclusion/exclusion criteria is assessed. Eligible patients are then be randomized at Visit 2 (Baseline, Day 1) and complete 5 further visits over a period of 24 weeks of treatment with LAF237 or placebo added to insulin.
Patients were instructed to perform self-monitored blood glucose measurements (SMBG) any time hypoglycemia was suspected and prior to breakfast at least 3 times per week. […] Severe hypoglycemia was defined as any episode requiring the assistance of another party (with low plasma glucose value<3.1 mmol/L unless the severity of the event precluded glucose determination).

[1] = 24-week treatment, vildagliptin 50 mg bid added to insulin (n = 144)

Total number of hypoglycemic episodes reported (Panel B) [1]: 113 episodes
Number of patients reporting any hypoglycemic episode (Panel A) (24-week treatment, vildagliptin 50 mg bid added to insulin (n = 144), hypoglycemia = symptoms confirmed by SMBG<3.1 mmol/L): 33 patients
Number of severe hypoglycemic episodes (Panel C) [1]: none
Number of severe hypoglycemic episodes (Panel C) (24-week treatment, vildagliptin 50 mg bid added to insulin (n = 144), listed as Vildagliptin + Insulin): 0 episodes
Effect against insulin-induced hypoglycemia (added to insulin in type 2 diabetes patients): protective effect
Number of hypoglycemic events compared with placebo group (vildagliptin 50 mg bid vs placebo, both added to insulin, 24 weeks, P<0.001, chi-square test of two Poisson rates): statistically significantly lower
Number of severe hypoglycemic events compared with placebo group (vildagliptin 50 mg bid vs placebo, both added to insulin, 24 weeks): statistically significantly lower
Number of severe hypoglycemic events compared with placebo group (vildagliptin 50 mg bid vs placebo, both added to insulin, 24 weeks, listed as LAF237): fewer severe hypoglycaemic episodes
SMILES: N#C[C@@H]1CCCN1C(=O)CNC12CC3CC(CC(O)(C3)C1)C2 [vildagliptin, (S)-1-[(3-hydroxy-1-adamantyl)amino]acetyl-2-cyano-pyrrolidine]
Number of severe hypoglycemic episodes (Panel C) (24-week treatment, vildagliptin 50 mg bid added to insulin (n = 144), listed as LAF237): did not show any severe hypoglycaemic episodes
